# Legend:
# Type in all cases: in vivo
# Digitaria ischaemum = test: Activity test of compositions, soil sealing treatment (S); details: 21 days after treatment
# Excerpt: (§1) The required active ingredient B was purchased from a reagent company or synthesized by a known method. The technical materials were all dissolved with acetone solvents and diluted with an aqueous solution of 0.1% Tween 80 emulsifier, which were to be used immediately after dilution.
# The test soil was quantitatively filled to 3/4 of the pot, and then watered from the bottom of the pot to completely wet the soil to saturation. The test weed seeds were accelerated to just germinate, and then evenly and quantitatively sowed on the soil surface, covered with 0.5-1 cm soil according to the sizes of the seeds, and ready for use 72 hours after sowing.
# (§2) Each treatment was repeated 4 times. Four pots with 20 weed seeds sowed per pot were treated each time.
# (§3) The well-sowed test materials were evenly placed on a platform with an area of 0.5 m^2, and foliage spraying was carried out by the 3WP-2000-type walking spray tower at a dosage of 450 kg/ha and a spray pressure of 0.3 MPa. After all the solution was sprayed, the air valve was closed, and 30 seconds later, the door of the spray tower was opened, and the nutritional bowl was taken out. Then the air valve was opened, and the spray tube was cleaned by spraying 50 ml of water.
# (§4) A method for investigating absolute numbers was employed. Whole seedlings of survival weeds were cut off with a blade along the soil surface, and the fresh weight of the weeds was weighed using an analytical balance. For dead weeds, the fresh weight thereof was zero.
# (§5) The investigation was performed 21 days after the treatment for once in total.
# (§6) The theoretical fresh weight inhibition rate of a mixed combination of each treatment was calculated by the Gowing method (E0=X+Y−X*Y/100). […] An optimal ratio was determined according to the actual control effects, characteristics of herbicides, and balance of the formulation. In the formula, X represents the fresh weight inhibition rate of the active ingredient A in a dosage of P; Y represents the fresh weight inhibition rate of the active ingredient B in a dosage of Q. The statistical results are shown in Table 4.
# Arivela viscosa = test: as above; details: B alone 75 g a.i./ha, 21 days after treatment
# Protocol: as §1
# (§7) Weeds were cultivated in a controllable sunlight greenhouse at 20 to 30° C., in natural light, and with relative humidity of 57% to 72%. […] The test soil was quantitatively filled to 3/4 of the pot, and then watered from the bottom of the pot to completely wet the soil to saturation. The test weed seeds were accelerated to just germinate, and then evenly and quantitatively sowed on the soil surface, covered with 0.5-1 cm soil according to the sizes of the seeds, and ready for use 72 hours after sowing.
# as §2, §3, §4, §5, §6
# [1] = test system: Echinochloa crus-galli var. austrojaponensis; test: Activity test of compositions, early post-emergence foliage spray (F-EP); details: 21 days after treatment
# Protocol: as §1
# (§8) Weeds were cultivated by a pot culture method. […] Weed seeds with plump and uniform grains were selected, soaked in lukewarm water at 25° C. for 6 hours, and accelerated to germinate in a 28° C. biochemical incubator (in darkness). The weed seeds that had just germinated were evenly placed on the surface of the soil and then covered with 0.5-1 cm soil according to the sizes of seeds.
# (§9) The culture was carried out in a controllable sunlight greenhouse at 20 to 30° C., in natural light, and with relative humidity of 57% to 72%.
# as §2
# (§10) The agents were used once in total in the experiment. In the stage of 1-2 leaves, the weeds were thinned out to maintain 10 strains per treatment for later use.
# as §3, with “well-cultured” for “well-sowed”, “water. The test materials were transferred to and routinely cultured in a greenhouse after the treatment.” for “water.”
# as §4, §5, §6
# Echinochloa glabrescens [2] = test: Activity test of compositions, soil sealing treatment (S); details: 21 days after treatment
# Protocol: as §1, §7, §2, §3, §4, §5, §6
# Soliva anthemifolia = test: Activity test of compositions, early post-emergence foliage spray (F-EP); details: B alone 75 g a.i./ha, 21 days after treatment
# Protocol: as §1, §8, §9, §2, §10
# as §3, with “well-cultured” for “well-sowed”, “water. The test materials were transferred to and routinely cultured in a greenhouse after the treatment.” for “water.”
# as §4, §5, §6
# Echinochloa glabrescens [3] = test: as above; details: 21 days after treatment
# Protocol: as §1, §8, §9, §2, §10
# as §3, with “well-cultured” for “well-sowed”, “water. The test materials were transferred to and routinely cultured in a greenhouse after the treatment.” for “water.”
# as §4, §5, §6
# Oxybasis glauca = test: Activity test of compositions, soil sealing treatment (S); details: 21 days after treatment
# Protocol: as §1, §7, §2, §3, §4, §5, §6
# Cyperus glomeratus [4] = test: Activity test of compositions, early post-emergence foliage spray (F-EP); details: B alone 300 g a.i./ha, 21 days after treatment
# Protocol: as §1, §8, §9, §2, §10
# as §3, with “well-cultured” for “well-sowed”, “water. The test materials were transferred to and routinely cultured in a greenhouse after the treatment.” for “water.”
# as §4, §5, §6
# Cyperus glomeratus [5] = test: Activity test of compositions, soil sealing treatment (S); details: 21 days after treatment
# Protocol: as §1, §7, §2, §3, §4, §5, §6
# [6] = B alone 30 g a.i./ha (with A 60)
compound,measurement,setting,value
Cn1nc(C(F)(F)F)c(CS(=O)(=O)C2=NOC(C)(C)C2)c1OC(F)F [pyroxasulfone],Control effect of B applied alone in a corresponding dose,Digitaria ischaemum; B alone 45 g a.i./ha,46.3
CC1(C)CON(Cc2ccccc2Cl)C1=O [clomazone],Control effect of B applied alone in a corresponding dose,Arivela viscosa,70.6%
CCNc1nc(Cl)nc(NC(C)(C)C)n1 [terbuthylazine],pest or weed control at 225 g/ha,"[1]; Echinochloa crus-galli, 504 h, B alone 225 g a.i./ha, read-out: Control effect of B applied alone in a corresponding dose",48.4%
COP(=S)(OC)SCC(=O)N(c1ccc(Cl)cc1)C(C)(C)C [anilofos],Control effect of B applied alone in a corresponding dose,Echinochloa glabrescens [2]; B alone 75 g a.i./ha,37.2
CCCCOCN(C(=O)CCl)c1c(CC)cccc1CC [butachlor],Control effect of B applied alone in a corresponding dose,Echinochloa glabrescens [2]; B alone 300 g a.i./ha,41.3
Nc1c(Cl)c(F)nc(OCC(=O)O)c1Cl [fluroxypyr],Control effect of B applied alone in a corresponding dose,Soliva anthemifolia,66.7%
CCCC(=NOCC(C)Oc1ccc(Cl)cc1)C1=C(O)CC(C2CCCSC2)CC1=O (stereo not drawn) [profoxydim],Control effect of B applied alone in a corresponding dose,Echinochloa glabrescens [3]; B alone 45 g a.i./ha,54.7%
C[C@@H](Oc1ccc(Oc2nc3ccc(Cl)cc3o2)cc1)C(=O)N(C)c1ccccc1F [metamifop],Control effect of B applied alone in a corresponding dose,Echinochloa glabrescens [3]; B alone 75 g a.i./ha,58.8%
C#CCN1C(=O)COc2cc(F)c(N3C(=O)C4=C(CCCC4)C3=O)cc21 [flumioxazin],Control effect of B applied alone in a corresponding dose,Oxybasis glauca; B alone 30 g a.i./ha,55.6
CC(C)N1C(=O)c2ccccc2NS1(=O)=O [bentazone],Control effect of B applied alone in a corresponding dose,Cyperus glomeratus [4],43.8
CS(=O)(=O)c1ccc(C(=O)C2C(=O)CCCC2=O)c([N+](=O)[O-])c1 [mesotrione],pest or weed control at 60 g/ha,"[1]; Echinochloa crus-galli, 504 h, B alone 60 g a.i./ha (with A 60), read-out: Control effect of B applied alone in a corresponding dose",51.7%
"COC(=O)c1sccc1S(=O)(=O)NC(=O)Nc1nc(C)nc(OC)n1 [thifensulfuronmethyl, thifensulfuron-methyl]",Control effect of B applied alone in a corresponding dose,Oxybasis glauca; B alone 7.5 g a.i./ha,68.6
CN(C(=O)COc1nc2ccccc2s1)c1ccccc1 [mefenacet],Control effect of B applied alone in a corresponding dose,Echinochloa glabrescens [2]; B alone 150 g a.i./ha,37.9
Cc1ccc(NC(=O)N(C)C)cc1Cl [chlorotoluron],pest or weed control at 450 g/ha,"[1]; Echinochloa crus-galli, 504 h, B alone 450 g a.i./ha, read-out: Control effect of B applied alone in a corresponding dose",37.6%
"CCOC(=O)c1cnn(C)c1S(=O)(=O)NC(=O)Nc1nc(OC)cc(OC)n1 [pyrazosulfuronethyl, pyrazosulfuron-ethyl]",Control effect of B applied alone in a corresponding dose,Cyperus glomeratus [5]; B alone 7.5 g a.i./ha,29.8%
CCC(CC)Nc1c([N+](=O)[O-])cc(C)c(C)c1[N+](=O)[O-] [pendimethalin],Control effect of B applied alone in a corresponding dose,Digitaria ischaemum; B alone 375 g a.i./ha,65.7
CCCOCCN(C(=O)CCl)c1c(CC)cccc1CC [pretilachlor],Control effect of B applied alone in a corresponding dose,Echinochloa glabrescens [2]; B alone 150 g a.i./ha,43.6
CS(=O)(=O)c1cc(C(F)(F)F)ccc1C(=O)c1cnoc1C1CC1 [isoxaflutole],pest or weed control at 30 g/ha,"[1]; Echinochloa crus-galli, 504 h, B alone 30 g a.i./ha (with A 60), read-out: Control effect of B applied alone in a corresponding dose",47.8%
CCn1ncc(C(=O)c2ccc(S(C)(=O)=O)c(COCC(F)(F)F)c2Cl)c1OC(=O)c1cn(C)nc1C [fenpyrazone],Control effect of B applied alone in a corresponding dose,[1]; [6],53.1%
"COC(=O)c1ccccc1CS(=O)(=O)NC(=O)Nc1nc(OC)cc(OC)n1 [bensulfuronmethyl, bensulfuron-methyl]",Control effect of B applied alone in a corresponding dose,Cyperus glomeratus [5]; B alone 7.5 g a.i./ha,27.5%
CCC(C)Nc1c([N+](=O)[O-])cc(C(C)(C)C)cc1[N+](=O)[O-] (stereo not drawn) [butralin],Control effect of B applied alone in a corresponding dose,Digitaria ischaemum; B alone 900 g a.i./ha,60.2
Cc1nn(C)cc1C(=O)Oc1c(C(=O)c2ccc(C(F)(F)F)cc2S(C)(=O)=O)c(C)nn1C [bipyrazone],Control effect of B applied alone in a corresponding dose,[1]; [6],52.7%
CS(=O)(=O)c1ccc(C(=O)C2=C(Sc3ccccc3)C3CCC(C3)C2=O)c(Cl)c1 (stereo not drawn) [benzobicyclon],Control effect of B applied alone in a corresponding dose,[1]; B alone 60 g a.i./ha,48.7%
CCOc1cc(Oc2ccc(C(F)(F)F)cc2Cl)ccc1[N+](=O)[O-] [oxyfluorfen],Control effect of B applied alone in a corresponding dose,Cyperus glomeratus [5]; B alone 45 g a.i./ha,37.2%

# Reference: US20260191194A1, “OXABICYCLOALKANE COMPOUNDS, PREPARATION METHOD THEREFOR, AND HERBICIDAL COMPOSITION AND USE THEREOF” (QINGDAO KINGAGROOT CHEMICAL COMPOUND CO., LTD., priority 2022, published 2026)
